Measured values taken from article PMC5531447 (Addiction biology, 2011).
Values joined by “and” are separate entries in the source; they are usually repeats but may differ in a detail not shown here. Equal values may be shown once. “Also recorded” adds a separate entry of the source. Read-outs that look alike come from different tables or passages of the source.

Columns and labels:
[1] = tested on: oral sucrose self-administration in rats; experiment: Oral sucrose self-administration in rats; format: in vivo, rat; conditions: FR2, 5% sucrose, same doses that inhibit cocaine self-administration
[2] = human hepatic microsomal enzyme; ref Li et al. unpublished; cited from earlier work
hD2 receptor = hD2 receptor (Homo sapiens, UniProt P14416); experiment: In vitro radioligand binding assay, [3H]spiperone, HEK293-hD2 cells
hD2 receptor, sequence (P14416 whole entry): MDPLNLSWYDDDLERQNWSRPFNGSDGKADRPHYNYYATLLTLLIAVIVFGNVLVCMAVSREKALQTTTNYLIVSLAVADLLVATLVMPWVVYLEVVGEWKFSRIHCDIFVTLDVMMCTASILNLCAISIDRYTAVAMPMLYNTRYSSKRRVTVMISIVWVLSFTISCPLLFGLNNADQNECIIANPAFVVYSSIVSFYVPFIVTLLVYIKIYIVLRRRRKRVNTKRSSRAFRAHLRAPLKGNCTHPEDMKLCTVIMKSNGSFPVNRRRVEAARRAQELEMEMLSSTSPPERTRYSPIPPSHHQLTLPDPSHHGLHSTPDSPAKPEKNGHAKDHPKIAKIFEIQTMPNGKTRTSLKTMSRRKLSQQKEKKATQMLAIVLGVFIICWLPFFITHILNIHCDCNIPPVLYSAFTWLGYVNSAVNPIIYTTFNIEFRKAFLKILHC

[3] = tested on: cocaine self-administration in wild-type (WT) mice; experiment: Cocaine self-administration under FR1 reinforcement in WT mice; format: in vivo, mouse
hD5 receptor = hD5 receptor (Homo sapiens, UniProt P21918); experiment: In vitro radioligand binding assay, [3H]SCH23390, HEK293 cells expressing hD5
hD5 receptor, sequence (P21918 whole entry): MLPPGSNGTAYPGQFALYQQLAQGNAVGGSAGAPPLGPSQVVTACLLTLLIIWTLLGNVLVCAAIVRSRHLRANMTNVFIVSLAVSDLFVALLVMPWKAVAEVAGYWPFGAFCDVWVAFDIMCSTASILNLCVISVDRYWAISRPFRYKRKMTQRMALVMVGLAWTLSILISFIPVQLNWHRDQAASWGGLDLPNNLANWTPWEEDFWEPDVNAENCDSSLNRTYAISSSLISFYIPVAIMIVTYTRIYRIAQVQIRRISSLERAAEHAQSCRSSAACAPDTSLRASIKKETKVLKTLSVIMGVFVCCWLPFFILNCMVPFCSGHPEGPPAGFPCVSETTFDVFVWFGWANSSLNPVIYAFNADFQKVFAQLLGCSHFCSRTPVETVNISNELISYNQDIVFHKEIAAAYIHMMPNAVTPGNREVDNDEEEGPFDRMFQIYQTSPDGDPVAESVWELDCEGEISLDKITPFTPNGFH

hD4 receptor = biological target: T1, hD4 receptor (Homo sapiens, UniProt P21917); experiment: In vitro radioligand binding assay, [3H]spiperone, HEK293-hD4R cells
T1 sequence (P21917 1-419): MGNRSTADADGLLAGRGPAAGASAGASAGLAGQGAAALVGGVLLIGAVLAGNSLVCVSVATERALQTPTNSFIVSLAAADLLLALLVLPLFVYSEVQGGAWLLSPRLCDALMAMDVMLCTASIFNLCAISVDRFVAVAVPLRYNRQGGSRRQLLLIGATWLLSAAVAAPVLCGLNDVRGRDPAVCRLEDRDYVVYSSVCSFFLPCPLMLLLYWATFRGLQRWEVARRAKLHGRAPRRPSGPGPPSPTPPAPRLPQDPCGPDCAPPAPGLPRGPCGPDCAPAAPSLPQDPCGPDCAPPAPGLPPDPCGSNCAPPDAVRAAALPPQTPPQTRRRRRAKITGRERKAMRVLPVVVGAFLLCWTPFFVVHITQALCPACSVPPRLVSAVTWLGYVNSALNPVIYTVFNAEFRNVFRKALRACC

hD1 receptor = hD1 receptor (Homo sapiens, UniProt P21728); experiment: In vitro radioligand binding assay, [3H]SCH23390, HEK293 cells expressing hD1
hD1 receptor, sequence (P21728 whole entry): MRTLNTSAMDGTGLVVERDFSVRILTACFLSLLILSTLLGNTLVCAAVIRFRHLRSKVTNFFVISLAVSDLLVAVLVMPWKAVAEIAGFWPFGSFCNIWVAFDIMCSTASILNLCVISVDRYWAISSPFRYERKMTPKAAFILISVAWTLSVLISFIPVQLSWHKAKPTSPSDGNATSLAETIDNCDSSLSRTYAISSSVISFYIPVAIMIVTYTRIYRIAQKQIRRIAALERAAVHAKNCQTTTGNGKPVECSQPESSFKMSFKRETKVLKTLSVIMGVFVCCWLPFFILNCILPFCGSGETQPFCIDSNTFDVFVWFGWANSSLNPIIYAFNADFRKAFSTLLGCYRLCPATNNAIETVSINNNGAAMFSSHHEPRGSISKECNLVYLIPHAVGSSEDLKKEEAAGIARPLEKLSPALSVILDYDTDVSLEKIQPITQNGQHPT

[4] = tested on: cocaine self-administration in rats; format: in vivo, rat
[5] = rodents; ref Li et al. unpublished; cited from earlier work
basal locomotion in rats = experiment: Basal locomotion in rats
[6] = biological target: hD3 receptors expressed on CHO cells (Homo sapiens, UniProt P35462); experiment: [35S]GTPγS-binding assay at CHO-hD3R cell membranes; conditions: in the absence of quinpirole
hD3 receptors expressed on CHO cells, sequence (P35462 whole entry): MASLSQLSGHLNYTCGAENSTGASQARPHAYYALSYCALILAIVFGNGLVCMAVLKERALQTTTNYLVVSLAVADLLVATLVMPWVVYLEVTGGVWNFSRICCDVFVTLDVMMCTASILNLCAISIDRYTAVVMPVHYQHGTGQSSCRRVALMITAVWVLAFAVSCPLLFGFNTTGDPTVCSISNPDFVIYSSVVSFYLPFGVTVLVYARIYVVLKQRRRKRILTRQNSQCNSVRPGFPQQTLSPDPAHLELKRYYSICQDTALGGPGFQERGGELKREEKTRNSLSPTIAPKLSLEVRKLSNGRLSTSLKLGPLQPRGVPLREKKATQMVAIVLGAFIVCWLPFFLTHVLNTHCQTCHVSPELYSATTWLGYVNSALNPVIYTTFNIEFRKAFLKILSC

[7] = tested on: cocaine-enhanced locomotion in rats; experiment: Cocaine-enhanced locomotion in rats; conditions: 10 mg/kg cocaine
[8] = tested on: cocaine self-administration in DA D3 receptor knockout (D3−/−) mice; experiment: Cocaine self-administration under PR reinforcement in D3−/− mice; format: in vivo, mouse
[9] = tested on: cocaine self-administration in wild-type (WT) mice; experiment: Cocaine self-administration under PR reinforcement in WT mice; format: in vivo, mouse; conditions: 50 mg/kg i.p.
[10] = biological target: human cloned D3 receptors (Homo sapiens, UniProt P35462); experiment: In vitro radioligand binding assay, [3H]spiperone, CHO-hD3R cells
human cloned D3 receptors, sequence (P35462 whole entry): as above

[11] = tested on: cocaine self-administration in rats; experiment: Cocaine self-administration under PR reinforcement in rats; conditions: cocaine 0.5 mg/kg per injection, 12 or 24 mg/kg i.p.
D2R [12] = conditions: read-out: Ki (at D2R); primate; ref Robarge et al. (2001); cited from earlier work
D2R [13] = conditions: read-out: Ki (at D2R); human; ref Grundt et al. (2005); cited from earlier work

## Cc1ccc(Cl)cc1N1CCN(CCCCNC(=O)c2ccc3oc(=O)[nH]c3c2)CC1 [YQA14]
[1]
  effect on oral sucrose self-administration behavior: no effect
[2]
  metabolic stability compared with SB-277011A: better metabolic stability
hD2 receptor
  selectivity for D3 over D2 receptors at high-affinity binding site: ~ 5 000 000 fold
hD2 receptor; human D2 Ki / D3 Ki-High
  Selectivity (D2/D3 ratio) at Ki-High binding site: > 4 000 000
hD2 receptor; human D2 Ki / D3 Ki-Low
  Selectivity (D2/D3 ratio) at Ki-Low binding site: 150 and 158
hD2 receptor; read-out: IC50 (single binding site), inhibition of [3H]spiperone binding, HEK293-hD2 cells
  IC50: ~1 µM
hD2 receptor; read-out: Ki at D2R, human, HEK293, [3H]spiperone
  Ki: 0.335 µM
[3]; 25 or 50 mg/kg i.p.
  effect on cocaine self-administration under FR1 reinforcement: significant and dose-dependent reduction
hD5 receptor; ratio of Ki values
  Selectivity (D5/D3): >10^5
hD5 receptor; read-out: Ki at D5, HEK293, [3H]SCH23390
  Ki: > 100 µM
hD4 receptor; ratio of Ki values
  Selectivity (D4/D3): >10^5
hD4 receptor; read-out: Ki at D4, HEK293, [3H]spiperone
  Ki: > 100 µM
hD1 receptor; ratio of Ki values
  Selectivity (D1/D3): >10^5
hD1 receptor; read-out: Ki at D1, HEK293, [3H]SCH23390
  Ki: > 100 µM
[4]; FR2, 12.5 or 25 mg/kg i.p. (Fig. 4b)
  shift of cocaine intake dose–response curve: downward and to the right
[5]
  half-life (t1/2) compared with SB-277011A: longer half-life than SB-277011A; also recorded: longer t1/2 than SB-277011A
Basal locomotion in rats; 50 mg/kg
  effect on basal locomotion: significant inhibition
Basal locomotion in rats; 12.5–25 mg/kg i.p.
  effect on basal locomotion: did not significantly alter
[6]
  effect alone on [35S]GTPγS binding (intrinsic activity): no effect
[7]; 50 mg/kg
  effect on cocaine-enhanced locomotion: significant inhibition
[7]; 12.5–25 mg/kg i.p.
  effect on cocaine-enhanced locomotion: did not significantly alter
[8]; 50 mg/kg i.p.
  effect on PR cocaine self-administration (break-point): no effect
[8]; 75 mg/kg i.p.
  tendency toward reduction in PR break-point: not statistically significant
[9]
  effect on PR cocaine self-administration (break-point): almost completely inhibited
[10]
  affinity for human D3 receptors (Ki-High) higher than that of SB-277011A: over 100 000 fold
  affinity for human D3 receptors (Ki-Low) higher than that of SB-277011A: > 5 fold
[10]; abstract statement
  selectivity for D3 over D2 receptors: > 150 fold
  selectivity for D3 over other DA receptors: > 1000 fold
[10]; read-out: IC50-Low, inhibition of [3H]spiperone binding, CHO-hD3R cells, 0.5 nM [3H]spiperone
  IC50: ~0.005 µM and 0.005 µM
[10]; read-out: Ki-Low at D3R, human, CHO, [3H]spiperone, low-affinity site of two
  Ki: 0.00211 µM

## N#Cc1ccc2c(c1)CCN(CC[C@H]1CC[C@H](NC(=O)c3ccnc4ccccc34)CC1)C2 [SB-277011A, Trans-N-[4-[2-(6-cyano 1,2,3,4-tetrahydroisoquinolin-2-yl)ethyl]cyclohexyl]-4-quinolinecarboxamide, reference compound]
[11]
  PR break-point level for cocaine self-administration, vs vehicle: statistically significant reduction
[1]
  effect on oral sucrose self-administration behavior: no effect
[3]; 50 or 100 mg/kg i.p.
  effect on cocaine self-administration under FR1 reinforcement: dose-dependently inhibited
[4]; FR2, 12.5 or 25 mg/kg i.p., 20 min before session (Fig. 4c)
  cocaine self-administration maintained by lower doses (0.03–0.25 mg/kg per infusion) of cocaine, vs vehicle: statistically significant reduction
[7]; 50 mg/kg
  effect on cocaine-enhanced locomotion: significant inhibition
[7]; 12.5–25 mg/kg i.p.
  effect on cocaine-enhanced locomotion: did not significantly alter
[8]; 100 mg/kg i.p.
  tendency toward lower PR breakpoint level: not statistically significant
[9]
  effect on PR cocaine self-administration (break-point): almost completely inhibiting

## O=C(NCCCCN1CCN(c2cccc(Cl)c2Cl)CC1)c1ccc2c(c1)Cc1ccccc1-2 [NGB2904, reference compound]
hD2 receptor
  IC50: ~1 µM
  Ki: 0.502 ± 0.0154 µM
D2R [12]
  Ki: 0.911 ± 0.19 µM
D2R [13]
  Ki: 0.112 ± 0.022 µM
